Data: BigSolDB 2.1

CCN(CC)C(=S)SSC(=S)N(CC)CC
solubility (mole fraction)
Conditions | in THF | in acetonitrile | in dichloromethane | in ethanol | in ethyl acetate | in isobutanol | in isopropanol | in methanol | in n-butanol | in n-propanol
273.15 K | 0.0618 | 0.0134 | 0.11 | 0.000903 | 0.00709 | 0.00101 | 0.000564 | 0.000896 | 0.00109 | 0.00101
278.15 K | 0.0719 | 0.0174 | 0.118 | 0.00111 | 0.0101 | 0.00119 | 0.000733 | 0.00105 | 0.00155 | 0.00127
283.15 K | 0.0825 | 0.024 | 0.13 | 0.00143 | 0.0143 | 0.00146 | 0.000981 | 0.00134 | 0.00216 | 0.00167
288.15 K | 0.0942 | 0.0313 | 0.143 | 0.00192 | 0.0201 | 0.00198 | 0.00133 | 0.00172 | 0.0028 | 0.00229
293.15 K | 0.111 | 0.041 | 0.159 | 0.00266 | 0.0275 | 0.00263 | 0.0018 | 0.00235 | 0.00375 | 0.00301
298.15 K | 0.131 | 0.0558 | 0.175 | 0.00339 | 0.0405 | 0.0035 | 0.0026 | 0.00323 | 0.00518 | 0.00423
303.15 K | 0.152 | 0.0793 | 0.202 | 0.00466 | 0.0571 | 0.0052 | 0.00346 | 0.0042 | 0.00715 | 0.00571
308.15 K | 0.173 | 0.108 | 0.229 | 0.0063 | 0.0809 | 0.00779 | 0.0047 | 0.00541 | 0.0104 | 0.00797
313.15 K | 0.198 | 0.141 | 0.263 | 0.00911 | 0.107 | 0.011 | 0.00651 | 0.00736 | 0.0151 | 0.0106
318.15 K | 0.228 | 0.184 | – | 0.0131 | 0.143 | 0.0152 | 0.00964 | 0.0106 | 0.0208 | 0.0155
